Measured values taken from ChEMBL document CHEMBL3425442, “Tetrahydroindazoles as Interleukin-2 Inducible T-Cell Kinase Inhibitors. Part II. Second-Generation Analogues with Enhanced Potency, Selectivity, and Pharmacodynamic Modulation in Vivo” (J Med Chem, 2015).
In brackets after ≈: the same amount, converted by molar mass. Several values for one entry are separate records, joined by “and”; a condition that tells them apart may be missing. Equal entries are not always repeated.

Experiments:
physchem = settings: aqueous phosphate buffer, pH 7.4, Kinetic_solubility
Description: Kinetic solubility of the compound in aqueous phosphate buffer at pH 7.4 after 24 hrs by HPLC/CLND method

[1] = Cytotoxicity against human Jurkat T cells without TCR stimulation assessed as cell viability by ATPlite assay
[2] = molecular target: Tyrosine-protein kinase Lck (Homo sapiens, UniProt P06239); test: Inhibition of LCK (unknown origin)
Homo sapiens [3] = organism: Homo sapiens; test: Selectivity ratio of Ki for LCK (unknown origin) to Ki for GST-tagged recombinant full length human ITK
Hepatocyte = test: Cytotoxicity against hepatocytes (unknown origin)
[4] = Permeability in MDCK cells; assay type: ADME, cell-based, Canis lupus familiaris; settings: dog, read-out: permeability
[5] = Plasma protein binding in human; assay type: ADME, cell-free; settings: read-out: PPB (converted)
hERG (KCNH2) = hERG (KCNH2) (Homo sapiens, UniProt Q12809); test: Inhibition of human ERG at 10 uM by patch clamp assay relative to control
[6] = 1-octanol-phosphate buffer partition coefficient, log D of the compound at pH 7.4 by UPLC/MS/MS analysis
[7] = molecular target: 5-hydroxytryptamine receptor 2A (Homo sapiens) (UniProt P28223); test: Binding affinity to human 5HT-2A receptor assessed as protein-compound complex at 10 uM relative to control
[8] = molecular target: D(1A) dopamine receptor (Homo sapiens) (UniProt P21728); test: Binding affinity to human dopamine D1 receptor assessed as protein-compound complex at 10 uM relative to control
[9] = molecular target: D(2) dopamine receptor (Homo sapiens) (UniProt P14416); test: Binding affinity to human dopamine D2S receptor assessed as protein-compound complex at 10 uM relative to control
Homo sapiens [10] = organism: Homo sapiens; test: Binding affinity to L-type calcium channel verapamil binding site (unknown origin) assessed as protein-compound complex at 10 uM relative to control
[11] = molecular target: Sodium-dependent serotonin transporter (Homo sapiens) (UniProt P31645); test: Binding affinity to human 5-HT transporter assessed as protein-compound complex at 10 uM relative to control
Mus musculus [12] = test: Reduction in serum IL-2 level in C57/Bl6 mouse at 30 mg/kg, ip administered for 1 hr followed by anti-CD3 treatment measured after 1.5 hrs relative to vehicle-treated control; assay type: functional; design: scale not given: the % may be the effect or the level left; settings: route intraperitoneal
Mus musculus [13] = test: Reduction in serum IL-2 level in ip dosed C57/Bl6 mouse administered for 1 hr followed by anti-CD3 treatment measured after 1.5 hrs; assay type: functional, organism-based
Mus musculus [14] = test: Reduction in serum IL-13 level in C57/Bl6 mouse at 30 mg/kg, ip administered for 1 hr followed by anti-CD3 treatment measured after 1.5 hrs relative to vehicle-treated control; assay type: functional; design: scale not given: the % may be the effect or the level left; settings: route intraperitoneal
[15] = Plasma concentration in C57/Bl6 mouse at 200 mg/kg, ip administered for 1 hr followed by anti-CD3 treatment measured at 2.5 hrs; assay type: ADME, organism-based; design: dose 200 mg/kg, route intraperitoneal
Mus musculus [16] = test: Reduction in serum IL-13 level in C57/Bl6 mouse at 100 mg/kg, ip administered for 1 hr followed by anti-CD3 treatment measured after 1.5 hrs relative to vehicle-treated control; assay type: functional; design: scale not given: the % may be the effect or the level left; settings: route intraperitoneal
Mus musculus [17] = test: Reduction in serum IL-2 level in C57/Bl6 mouse at 100 mg/kg, ip administered for 1 hr followed by anti-CD3 treatment measured after 1.5 hrs relative to vehicle-treated control; assay type: functional; design: scale not given: the % may be the effect or the level left; settings: route intraperitoneal
Mus musculus [18] = test: Reduction in serum IL-2 level in C57/Bl6 mouse at 200 mg/kg, ip administered for 1 hr followed by anti-CD3 treatment measured after 1.5 hrs relative to vehicle-treated control; assay type: functional; settings: route intraperitoneal
Mus musculus [19] = test: Reduction in serum IL-13 level in C57/Bl6 mouse at 200 mg/kg, ip administered for 1 hr followed by anti-CD3 treatment measured after 1.5 hrs relative to vehicle-treated control; assay type: functional; design: scale not given: the % may be the effect or the level left; settings: route intraperitoneal

Sequence of Tyrosine-protein kinase Lck (P06239 whole entry): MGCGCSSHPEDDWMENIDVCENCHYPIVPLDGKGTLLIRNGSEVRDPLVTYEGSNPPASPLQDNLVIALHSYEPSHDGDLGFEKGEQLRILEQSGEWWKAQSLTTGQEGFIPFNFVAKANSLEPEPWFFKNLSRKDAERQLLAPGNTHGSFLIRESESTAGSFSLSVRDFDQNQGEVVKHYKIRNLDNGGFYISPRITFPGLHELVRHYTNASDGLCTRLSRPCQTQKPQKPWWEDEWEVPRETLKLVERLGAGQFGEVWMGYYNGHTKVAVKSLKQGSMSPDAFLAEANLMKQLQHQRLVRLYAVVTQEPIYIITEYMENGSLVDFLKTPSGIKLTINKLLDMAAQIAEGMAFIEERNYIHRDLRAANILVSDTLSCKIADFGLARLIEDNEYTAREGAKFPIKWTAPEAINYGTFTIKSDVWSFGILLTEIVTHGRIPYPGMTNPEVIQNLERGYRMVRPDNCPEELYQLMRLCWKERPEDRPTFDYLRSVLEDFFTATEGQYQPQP
Sequence of hERG (KCNH2) (Q12809 whole entry): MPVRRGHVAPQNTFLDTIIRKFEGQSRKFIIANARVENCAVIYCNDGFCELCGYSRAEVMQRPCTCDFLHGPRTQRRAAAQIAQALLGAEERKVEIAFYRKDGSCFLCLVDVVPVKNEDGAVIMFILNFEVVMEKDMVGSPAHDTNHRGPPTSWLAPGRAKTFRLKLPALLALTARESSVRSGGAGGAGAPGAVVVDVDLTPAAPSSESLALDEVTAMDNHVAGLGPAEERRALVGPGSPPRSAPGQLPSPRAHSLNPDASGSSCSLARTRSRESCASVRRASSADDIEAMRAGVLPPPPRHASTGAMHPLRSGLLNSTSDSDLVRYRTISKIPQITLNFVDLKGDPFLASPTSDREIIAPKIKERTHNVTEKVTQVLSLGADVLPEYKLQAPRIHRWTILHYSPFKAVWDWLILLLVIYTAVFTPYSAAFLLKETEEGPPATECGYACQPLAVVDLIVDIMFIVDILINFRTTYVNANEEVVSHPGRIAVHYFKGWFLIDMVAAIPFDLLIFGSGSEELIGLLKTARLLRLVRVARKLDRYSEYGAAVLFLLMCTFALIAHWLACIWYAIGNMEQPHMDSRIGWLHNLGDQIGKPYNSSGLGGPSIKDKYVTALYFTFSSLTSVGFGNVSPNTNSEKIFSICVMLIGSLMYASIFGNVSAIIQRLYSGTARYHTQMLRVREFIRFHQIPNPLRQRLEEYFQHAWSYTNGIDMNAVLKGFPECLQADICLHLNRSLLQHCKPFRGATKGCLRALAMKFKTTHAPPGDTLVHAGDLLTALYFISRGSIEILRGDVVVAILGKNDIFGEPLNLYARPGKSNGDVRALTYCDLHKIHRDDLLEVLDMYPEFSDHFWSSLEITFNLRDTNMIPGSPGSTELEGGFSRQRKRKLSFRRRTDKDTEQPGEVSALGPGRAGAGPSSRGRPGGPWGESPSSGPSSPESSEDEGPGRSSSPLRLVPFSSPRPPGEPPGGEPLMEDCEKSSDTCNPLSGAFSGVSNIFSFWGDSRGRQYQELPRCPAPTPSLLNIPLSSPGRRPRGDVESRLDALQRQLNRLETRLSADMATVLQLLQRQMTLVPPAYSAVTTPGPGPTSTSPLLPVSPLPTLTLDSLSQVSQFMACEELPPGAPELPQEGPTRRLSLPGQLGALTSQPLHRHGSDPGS
Sequence of D(2) dopamine receptor (Homo sapiens) (P14416 whole entry): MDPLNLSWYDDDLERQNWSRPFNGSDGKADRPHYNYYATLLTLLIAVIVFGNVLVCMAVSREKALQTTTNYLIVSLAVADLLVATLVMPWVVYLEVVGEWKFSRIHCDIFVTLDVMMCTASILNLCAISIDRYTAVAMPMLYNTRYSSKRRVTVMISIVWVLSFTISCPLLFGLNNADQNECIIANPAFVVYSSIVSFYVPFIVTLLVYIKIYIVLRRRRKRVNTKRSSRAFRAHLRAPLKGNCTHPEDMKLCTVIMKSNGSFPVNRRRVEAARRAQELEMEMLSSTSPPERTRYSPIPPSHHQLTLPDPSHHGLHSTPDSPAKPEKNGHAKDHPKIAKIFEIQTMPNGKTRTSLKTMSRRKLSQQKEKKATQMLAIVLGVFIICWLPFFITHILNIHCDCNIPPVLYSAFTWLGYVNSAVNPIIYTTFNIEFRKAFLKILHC
Sequence of D(1A) dopamine receptor (Homo sapiens) (P21728 whole entry): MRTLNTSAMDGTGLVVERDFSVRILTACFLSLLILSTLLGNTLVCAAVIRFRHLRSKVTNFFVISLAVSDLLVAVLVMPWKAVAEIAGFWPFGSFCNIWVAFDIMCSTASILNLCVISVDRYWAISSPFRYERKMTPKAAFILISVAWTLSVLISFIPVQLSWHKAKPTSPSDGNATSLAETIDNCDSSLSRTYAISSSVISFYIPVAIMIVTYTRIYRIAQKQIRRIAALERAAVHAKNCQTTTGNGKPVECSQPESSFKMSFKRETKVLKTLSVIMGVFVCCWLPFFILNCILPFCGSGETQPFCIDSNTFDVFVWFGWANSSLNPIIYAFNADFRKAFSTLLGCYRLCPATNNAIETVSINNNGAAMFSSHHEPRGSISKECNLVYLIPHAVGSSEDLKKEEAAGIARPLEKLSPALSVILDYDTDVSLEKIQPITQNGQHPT
Sequence of 5-hydroxytryptamine receptor 2A (Homo sapiens) (P28223 whole entry): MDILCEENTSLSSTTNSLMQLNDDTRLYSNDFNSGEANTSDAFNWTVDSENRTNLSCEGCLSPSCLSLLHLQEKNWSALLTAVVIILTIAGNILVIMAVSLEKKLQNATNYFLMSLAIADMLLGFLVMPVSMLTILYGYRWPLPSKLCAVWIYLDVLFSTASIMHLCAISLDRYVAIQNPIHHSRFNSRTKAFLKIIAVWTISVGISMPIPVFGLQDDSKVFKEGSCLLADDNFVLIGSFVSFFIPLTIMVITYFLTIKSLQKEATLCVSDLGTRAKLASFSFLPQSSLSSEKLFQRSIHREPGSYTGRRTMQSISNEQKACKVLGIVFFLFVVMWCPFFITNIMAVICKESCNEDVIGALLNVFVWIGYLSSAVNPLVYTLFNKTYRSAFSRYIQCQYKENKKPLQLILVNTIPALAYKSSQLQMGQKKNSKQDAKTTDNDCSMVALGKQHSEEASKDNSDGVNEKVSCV
Sequence of Sodium-dependent serotonin transporter (Homo sapiens) (P31645 whole entry, looked up): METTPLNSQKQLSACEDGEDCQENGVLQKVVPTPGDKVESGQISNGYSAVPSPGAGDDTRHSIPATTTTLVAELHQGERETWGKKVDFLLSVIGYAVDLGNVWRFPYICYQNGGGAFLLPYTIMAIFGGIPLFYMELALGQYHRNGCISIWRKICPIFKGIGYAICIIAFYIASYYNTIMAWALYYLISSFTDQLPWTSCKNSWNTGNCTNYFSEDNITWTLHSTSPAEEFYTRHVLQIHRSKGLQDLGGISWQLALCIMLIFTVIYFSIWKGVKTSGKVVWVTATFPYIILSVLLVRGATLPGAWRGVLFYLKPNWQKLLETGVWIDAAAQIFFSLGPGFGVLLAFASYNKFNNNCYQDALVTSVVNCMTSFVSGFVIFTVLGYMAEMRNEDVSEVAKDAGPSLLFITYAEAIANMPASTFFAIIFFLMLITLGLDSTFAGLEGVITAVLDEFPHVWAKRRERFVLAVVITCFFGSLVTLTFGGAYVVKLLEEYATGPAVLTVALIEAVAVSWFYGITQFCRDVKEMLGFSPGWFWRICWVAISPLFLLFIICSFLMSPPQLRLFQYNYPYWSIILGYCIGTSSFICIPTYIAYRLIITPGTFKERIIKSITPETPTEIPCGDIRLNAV

| Structure (SMILES) | solubility kinetic at 24 h (physchem) | Ki [2] | IC50 ([1]; Homo sapiens, Jurkat) | IC50 ([1]; jurkat) | IC50 (Hepatocyte) | inhibition at 10 µM (hERG (KCNH2)) | further results |
| --- | --- | --- | --- | --- | --- | --- | --- |
| CC1(C)CCc2c(C(=O)Nc3cnn(Cc4ccccc4)c3)n[nH]c2C1 | – | 1.8 µM | – | – | – | – | – |
| CC1(C)CCc2c(C(=O)Nc3cnn([C@@H](CS(C)(=O)=O)c4ccccc4)c3)n[nH]c2C1 | 4.5 µM (≈ 1.99 µg/mL) | > 2.5 µM | 42 µM | – | – | – | – |
| CC1(C)CCc2c(C(=O)Nc3cnn([C@@H](CCS(C)(=O)=O)c4ccccc4)c3)n[nH]c2C1 | – | 1.8 µM | 57 µM | – | – | – | Ratio Ki (Homo sapiens [3]): 290 |
| CN(C)CC[C@@H](c1ccccc1)n1cc(NC(=O)c2n[nH]c3c2CCC(C)(C)C3)cn1 | – | 0.34 µM | 4.7 µM | – | 6.2 µM | 88% | Activity [7]: 96%; Activity [8]: 96%; Activity [9]: 96%; Activity (Homo sapiens [10]): 88%; Activity [11]: 102% |
| CC1(C)CCc2c(C(=O)Nc3cnn([C@H](c4ccccc4)C4CC[S+]([O-])CC4)c3)n[nH]c2C1 (stereo partly specified) | 45 µM (≈ 21 µg/mL) | – | 20 µM | 30 µM | 83 µM | 3.6% | Activity (Mus musculus [12]): 55%; Activity (Mus musculus [13]): Dose-dependent effect; Papp [4]: 1.9 ×10⁻⁶ cm/s; fraction unbound [5]: 0.06; Activity (Mus musculus [14]): 62%; concentration at 2.5 h [15]: 80 µM; Activity (Mus musculus [16]): 95%; Activity (Mus musculus [17]): 90%; logD [6]: 3.6; %max (Mus musculus [18]): 98%; Activity (Mus musculus [19]): 100% |
| CC12Cc3[nH]nc(C(=O)Nc4cnn(Cc5ccccc5)c4)c3CC1C2 (stereo unspecified) | – | 1.4 µM | – | – | – | – | – |
| CC1(C)CCc2c(C(=O)Nc3cnn([C@H](c4ccccc4)C4CCS(=O)(=O)C4)c3)n[nH]c2C1 (stereo partly specified) | – | – | 27 µM | > 50 µM | – | – | – |

More lines, main results first:

| solubility kinetic at 24 h (physchem) | Ki [2] | Structure (SMILES) | IC50 ([1]; Homo sapiens, Jurkat) | IC50 ([1]; jurkat) | IC50 (Hepatocyte) | inhibition at 10 µM (hERG (KCNH2)) | further results |
| --- | --- | --- | --- | --- | --- | --- | --- |
| 4.3 µM (≈ 2.07 µg/mL) | – | CC1(C)CCc2c(C(=O)Nc3cnn([C@H](c4ccccc4)C4CCS(=O)(=O)CC4)c3)n[nH]c2C1 | 29 µM | – | – | – | – |
| 11 µM (≈ 5.3 µg/mL) | – | CC1(C)CCc2c(C(=O)Nc3cnn([C@H](c4ccccc4)C4CCCS(=O)(=O)C4)c3)n[nH]c2C1 (stereo partly specified) | – | 44 µM and 20 µM | – | – | – |
| 3.9 µM (≈ 2.01 µg/mL) | – | C[C@@]12Cc3[nH]nc(C(=O)Nc4cnn([C@H](c5ccccc5)[C@H]5CCCCS5(=O)=O)c4)c3C[C@@H]1C2(F)F | 12 µM | – | > 100 µM | 6.8% | Papp [4]: 1.5 ×10⁻⁶ cm/s; fraction unbound [5]: 0.03; logD [6]: 2.8 |
| 10 µM (≈ 4.82 µg/mL) | – | CC1(C)CCc2c(C(=O)Nc3cnn([C@H](c4ccccc4)C4CCCCS4(=O)=O)c3)n[nH]c2C1 (stereo partly specified) | > 50 µM | 33 µM | – | – | – |
| 6.5 µM (≈ 3.12 µg/mL) | – | C[C@@]12Cc3[nH]nc(C(=O)Nc4cnn([C@H](c5ccccc5)C5CCS(=O)(=O)CC5)c4)c3C[C@@H]1C2 | 29 µM | – | > 100 µM | 34% | Papp [4]: 4.4 ×10⁻⁶ cm/s; fraction unbound [5]: 0.03; logD [6]: 3.5 |
